Results as given in patent publication US20250214983A1, “1,3,4-OXADIAZOLE TRIAZOLE COMPOUNDS AS HISTONE DEACETYLASE 6 INHIBITOR, AND PHARMACEUTICAL COMPOSITION COMPRISING THE SAME” (Chong Kun Dang Pharmaceutical Corp., priority 2022, published 2025).

Columns and labels:
human recombinant HDAC6 = molecular target: T1, human recombinant HDAC6 (Homo sapiens, UniProt Q9UBN7); test: HDAC6 enzyme activity inhibition (HDAC Fluorimetric Drug Discovery Kit); assay type: biochemical; conditions: HDAC1 versus HDAC6
T1 construct: purchased Calbiochem Inc. 382180
T1 sequence (Q9UBN7 1-1215): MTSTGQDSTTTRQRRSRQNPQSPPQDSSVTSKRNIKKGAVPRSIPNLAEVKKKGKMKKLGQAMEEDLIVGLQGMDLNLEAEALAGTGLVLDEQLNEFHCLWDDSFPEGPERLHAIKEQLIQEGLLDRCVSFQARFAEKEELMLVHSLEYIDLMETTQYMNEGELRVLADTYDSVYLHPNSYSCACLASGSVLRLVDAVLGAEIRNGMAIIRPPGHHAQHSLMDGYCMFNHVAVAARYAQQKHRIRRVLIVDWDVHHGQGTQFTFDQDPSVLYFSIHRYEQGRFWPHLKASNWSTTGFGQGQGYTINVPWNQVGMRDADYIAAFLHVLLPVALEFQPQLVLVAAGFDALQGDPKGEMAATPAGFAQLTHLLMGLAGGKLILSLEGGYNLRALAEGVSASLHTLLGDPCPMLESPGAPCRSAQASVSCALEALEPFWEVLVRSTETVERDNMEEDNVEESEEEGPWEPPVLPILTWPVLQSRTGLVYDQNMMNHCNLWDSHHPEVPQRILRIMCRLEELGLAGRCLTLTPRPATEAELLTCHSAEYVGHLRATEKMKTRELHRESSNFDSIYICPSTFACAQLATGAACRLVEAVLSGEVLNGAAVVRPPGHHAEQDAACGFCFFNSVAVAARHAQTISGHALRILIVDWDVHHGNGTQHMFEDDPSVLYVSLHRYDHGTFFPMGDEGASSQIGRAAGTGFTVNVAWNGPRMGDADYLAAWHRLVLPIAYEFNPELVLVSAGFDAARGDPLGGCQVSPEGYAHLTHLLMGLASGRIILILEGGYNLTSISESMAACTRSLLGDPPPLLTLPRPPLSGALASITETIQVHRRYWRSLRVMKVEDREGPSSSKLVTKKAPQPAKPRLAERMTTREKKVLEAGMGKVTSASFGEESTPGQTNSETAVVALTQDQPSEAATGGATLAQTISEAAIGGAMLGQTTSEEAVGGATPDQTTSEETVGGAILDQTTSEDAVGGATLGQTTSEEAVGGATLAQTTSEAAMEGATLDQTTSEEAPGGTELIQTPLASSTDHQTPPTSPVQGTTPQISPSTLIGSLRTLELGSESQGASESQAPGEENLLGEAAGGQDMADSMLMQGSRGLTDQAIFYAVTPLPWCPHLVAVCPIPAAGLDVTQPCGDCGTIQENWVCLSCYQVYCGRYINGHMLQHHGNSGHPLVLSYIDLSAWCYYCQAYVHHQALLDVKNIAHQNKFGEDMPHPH
Description: (§1) An experiment was conducted to identify the selectivity of the 1,3,4-oxadiazole triazole compound of the present invention to HDAC6 through an experiment on HDAC1 and HDAC6 enzyme activity inhibition.
(§2) The HDAC enzyme activity was measured with HDAC Fluorimetric Drug Discovery Kit (BML-AK511, 516) of Enzo Life Science, Inc. For the test on the HDAC1 enzyme activity, human recombinant HDAC1 (BML-SE456) was used as an enzyme source and Fluor de Lys®-“SIRT1 (BNL-KI177)” was used as a substrate. A 5-fold dilution of the compound was divided into a 96-well plate, after which 0.3 μg of the enzyme and 10 μM of the substrate were inserted into each well and subjected to reaction at 30° C. for 60 minutes, such that Fluor de Lys® Developer II (BML-KI176) was inserted thereinto and subjected to reaction for 30 minutes and finished. After that, a fluorescence value (Ex 360, Em 460) was measured with a multi-plate reader (Flexstation 3, Molecular Device). An experiment on HDAC6 enzyme was conducted in accordance with the same protocol as in the HDAC1 enzyme activity test method by using human recombinant HDAC6 (382180) of Calbiochem Inc. For final result values, each IC50 value was calculated with GraphPad Prism 4.0 program.

human recombinant HDAC1 = molecular target: T2, human recombinant HDAC1 (Homo sapiens, UniProt Q13547); test: HDAC1 enzyme activity inhibition (HDAC Fluorimetric Drug Discovery Kit); assay type: biochemical; conditions: human recombinant HDAC1, Fluor de Lys substrate 10 μM, 30° C. 60 minutes
T2 construct: purchased Enzo Life Science, Inc. BML-SE456
T2 sequence (Q13547 whole entry): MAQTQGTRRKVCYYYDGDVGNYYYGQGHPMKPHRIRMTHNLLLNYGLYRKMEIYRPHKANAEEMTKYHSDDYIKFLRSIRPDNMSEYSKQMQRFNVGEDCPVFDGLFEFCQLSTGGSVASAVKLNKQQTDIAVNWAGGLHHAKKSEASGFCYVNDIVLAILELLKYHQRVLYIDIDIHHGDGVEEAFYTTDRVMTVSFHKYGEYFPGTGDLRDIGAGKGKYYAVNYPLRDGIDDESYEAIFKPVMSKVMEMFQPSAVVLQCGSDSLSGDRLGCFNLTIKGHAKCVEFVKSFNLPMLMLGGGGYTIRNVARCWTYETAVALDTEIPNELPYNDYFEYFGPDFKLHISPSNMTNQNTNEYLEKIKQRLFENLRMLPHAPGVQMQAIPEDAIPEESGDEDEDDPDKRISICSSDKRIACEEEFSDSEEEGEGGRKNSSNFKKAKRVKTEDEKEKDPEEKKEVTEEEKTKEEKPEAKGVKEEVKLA
Description: as §1, §2

Compound | HDAC6 selectivity (fold) (human recombinant HDAC6) | IC50 (human recombinant HDAC1)
Fc1c(CN2CCCCC2)cccc1-c1cn(Cc2ccc(-c3nnc(C(F)F)o3)cn2)nn1 [Compound 28, 2-(difluoromethyl)-5-(6-((4-(2-fluoro-3-(piperidin-1-ylmethyl)phenyl)-1H-1,2,3-triazol-1-yl)methyl)pyridin-3-yl)-1,3,4-oxadiazole] | 1440 fold | > 50 µM
FC(F)c1nnc(-c2ccc(Cn3cc(-c4cccc(CN5CCC5)c4Cl)nn3)nc2)o1 [Compound 35, 2-(6-((4-(3-(azetidin-1-ylmethyl)-2-chlorophenyl)-1H-1,2,3-triazol-1-yl)methyl)pyridin-3-yl)-5-(difluoromethyl)-1,3,4-oxadiazole] | 1146 fold | > 50 µM
FC(F)c1nnc(-c2ccc(Cn3cc(-c4cccc(CN5CCCC5)c4Cl)nn3)nc2)o1 [Compound 36, 2-(6-((4-(2-chloro-3-(pyrrolidin-1-ylmethyl)phenyl)-1H-1,2,3-triazol-1-yl)methyl)pyridin-3-yl)-5-(difluoromethyl)-1,3,4-oxadiazole] | 1792 fold | > 50 µM
CC1CCN(Cc2cccc(-c3cn(Cc4ccc(-c5nnc(C(F)F)o5)cn4)nn3)c2Cl)CC1 [Compound 37, 2-(6-((4-(2-chloro-3-((4-methylpiperidin-1-yl)methyl)phenyl)-1H-1,2,3-triazol-1-yl)methyl)pyridin-3-yl)-5-(difluoromethyl)-1,3,4-oxadiazole] | 1160 fold | > 50 µM
Fc1cc(CN2CCCC2)cc(-c2cn(Cc3ccc(-c4nnc(C(F)F)o4)cn3)nn2)c1 [Compound 39, 2-(difluoromethyl)-5-(6-((4-(3-fluoro-5-(pyrrolidin-1-ylmethyl)phenyl)-1H-1,2,3-triazol-1-yl)methyl)pyridin-3-yl)-1,3,4-oxadiazole] | 1773 fold | > 50 µM
FC(F)c1nnc(-c2ccc(Cn3cc(-c4ccc(CN5CCC5)c(Cl)c4)nn3)nc2)o1 [Compound 42, 2-(6-((4-(4-(azetidin-1-ylmethyl)-3-chlorophenyl)-1H-1,2,3-triazol-1-yl)methyl)pyridin-3-yl)-5-(difluoromethyl)-1,3,4-oxadiazole] | 2183 fold | > 50 µM

Continued, values first:

HDAC6 selectivity (fold) (human recombinant HDAC6) | IC50 (human recombinant HDAC1) | Compound
1424 fold | > 50 µM | CN(C)Cc1cc(Cl)cc(-c2cn(Cc3ccc(-c4nnc(C(F)F)o4)cn3)nn2)c1 [Compound 31, 1-(3-chloro-5-(1-((5-(5-(difluoromethyl)-1,3,4-oxadiazol-2-yl)pyridin-2-yl)methyl)-1H-1,2,3-triazol-4-yl)phenyl)-N,N-dimethylmethanamine]
1945 fold | > 50 µM | FC(F)c1nnc(-c2ccc(Cn3cc(-c4cc(Cl)cc(CN5CCCC5)c4)nn3)nc2)o1 [Compound 32, 2-(6-((4-(3-chloro-5-(pyrrolidin-1-ylmethyl)phenyl)-1H-1,2,3-triazol-1-yl)methyl)pyridin-3-yl)-5-(difluoromethyl)-1,3,4-oxadiazole]
1633 fold | > 50 µM | CN(C)Cc1cccc(-c2cn(Cc3ccc(-c4nnc(C(F)F)o4)cn3)nn2)c1Cl [Compound 34, 1-(2-chloro-3-(1-((5-(5-(difluoromethyl)-1,3,4-oxadiazol-2-yl)pyridin-2-yl)methyl)-1H-1,2,3-triazol-4-yl)phenyl)-N,N-dimethylmethanamine]
2777 fold | > 50 µM | Fc1cc(CN2CCC2)cc(-c2cn(Cc3ccc(-c4nnc(C(F)F)o4)cn3)nn2)c1 [Compound 38, 2-(6-((4-(3-(azetidin-1-ylmethyl)-5-fluorophenyl)-1H-1,2,3-triazol-1-yl)methyl)pyridin-3-yl)-5-(difluoromethyl)-1,3,4-oxadiazole]
2083 fold | > 50 µM | CN(C)Cc1ccc(-c2cn(Cc3ccc(-c4nnc(C(F)F)o4)cn3)nn2)cc1Cl [Compound 41, 1-(2-chloro-4-(1-((5-(5-(difluoromethyl)-1,3,4-oxadiazol-2-yl)pyridin-2-yl)methyl)-1H-1,2,3-triazol-4-yl)phenyl)-N,N-dimethylmethanamine]
